# In patent US20090306147A1, “BIOLOGICAL EFFICACY OF AGROCHEMICAL COMPOSITIONS ON APPLICATION IN THE GROWTH SUBSTRATE SUITABLE FORMULATIONS AND USE THEREOF” (priority 2006, published 2009):
# What was measured:
# Format in all cases: in vivo
# [1] = tested on: green peach aphid (Myzus persicae); assay: Watering test on bell-pepper plant, green peach aphid (Use Example 3)
# Procedure: After sowing, a bell-pepper plant is grown for about 30 days in a 1 litre vessel. The plant is then watered with 60 ml of a solution having the stated concentration of insecticidally active compound and adjuvant and, after the stated period of time, infected with the green peach aphid (Myzus persicae). After the desired period of time, the kill in % is determined. 100% means that all aphids have been killed; 0% means that none of the aphids have been killed. The same test without added adjuvant served as a control.
# [2] = tested on: green peach aphid (Myzus persicae); assay: Watering test on cabbage plant, green peach aphid (Use Example 5); settings: infection 3 d after application, 7 d after infection
# Procedure: (§1) After sowing, a cabbage plant (Brassica oleracea) is grown for about 10 days in a 1 litre vessel. The plant is then watered with 60 ml of a solution having the stated concentration of insecticidally active compound and adjuvant and, after the stated period of time, infected with the green peach aphid (Myzus persicae). After the desired period of time, the kill in % is determined. 100% means that all aphids have been killed; 0% means that none of the aphids have been killed. The same test without added adjuvant served as a control.
# [3] = tested on: diamond-back moth (Plutella xylostella); assay: Watering test on cabbage plant, diamond-back moth caterpillars (Use Example 4); settings: infection 1 d after application, 7 d after infection
# Procedure: as §1, with “about 14” for “about 10”, “the caterpillars of the diamond-back moth (Plutella xylostella).” for “the green peach aphid (Myzus persicae).”, “all caterpillars” for “all aphids”, “the caterpillars” for “the aphids”
compound,measurement,setting,value
"O=[N+]([O-])NC1=NCCN1Cc1ccc(Cl)nc1 [(II-7), imidacloprid]",Mortality,"[1]; 0.0039 mg/l of soil, adjuvant (I-2) 1000 mg/l, infection 3 d after application, 7 d after infection",D (from 76 to 100)
same,Mortality,"[1]; 0.0039 mg/l of soil, adjuvant (I-3) 2000 mg/l watering solution, infection 3 d after application, 4 d after infection",D (from 76 to 100)
same,Mortality,"[1]; 0.0039 mg/l of soil, adjuvant (I-3) 2000 mg/l, infection 3 d after application, 7 d after infection",D (from 76 to 100)
same,Mortality,"[1]; 0.0039 mg/l of soil, adjuvant (I-3) 2000 mg/l, infection 21 d after application, 4 d after infection",D (from 76 to 100)
same,Mortality,"[1]; 0.0039 mg/l of soil, adjuvant (I-3) 2000 mg/l, infection 21 d after application, 7 d after infection",D (from 76 to 100)
same,Mortality,"[1]; 0.0039 mg/l of soil, adjuvant (I-5) 2000 mg/l watering solution, infection 3 d after application, 4 d after infection",D (from 76 to 100)
same,Mortality,"[1]; 0.0039 mg/l of soil, adjuvant (I-5) 2000 mg/l, infection 3 d after application, 7 d after infection",D (from 76 to 100)
same,Mortality,"[1]; 0.0039 mg/l of soil, adjuvant (I-5) 2000 mg/l, infection 21 d after application, 4 d after infection",D (from 76 to 100)
same,Mortality,"[1]; 0.0039 mg/l of soil, adjuvant (I-5) 2000 mg/l, infection 21 d after application, 7 d after infection",D (from 76 to 100)
same,Mortality,"[1]; 0.0039 mg/l of soil, no adjuvant, infection 3 d after application, 4 d after infection",B (from 26 to 50%)
same,Mortality,"[1]; 0.0039 mg/l of soil, no adjuvant, infection 3 d after application, 7 d after infection",C (from 51 to 75%)
same,Mortality,"[1]; 0.0039 mg/l of soil, no adjuvant, infection 21 d after application, 4 d after infection",C (from 51 to 75%)
same,Mortality,"[1]; 0.0039 mg/l of soil, no adjuvant, infection 21 d after application, 7 d after infection",C (from 51 to 75%)
same,Mortality,"[2]; 0.00195 mg/l of soil, adjuvant (I-2) 1000 mg/l",B (from 26 to 50%)
same,Mortality,"[2]; 0.00195 mg/l of soil, no adjuvant",A (from 0 to 25%)
same,Mortality,"[2]; 0.0039 mg/l of soil, adjuvant (I-2) 1000 mg/l",C (from 51 to 75%)
same,Mortality,"[2]; 0.0039 mg/l of soil, no adjuvant",B (from 26 to 50%)
CN(Cc1ccc(Cl)nc1)C1=CC(=O)OC1 [(IV-1)],Mortality,"[1]; 0.0156 mg/l of soil, adjuvant (I-3) 2000 mg/l, infection 13 d after application, 5 d after infection",D (from 76 to 100)
same,Mortality,"[1]; 0.0156 mg/l of soil, adjuvant (I-3) 2000 mg/l, infection 13 d after application, 7 d after infection",D (from 76 to 100)
same,Mortality,"[1]; 0.0156 mg/l of soil, adjuvant (I-5) 2000 mg/l, infection 13 d after application, 5 d after infection",D (from 76 to 100)
same,Mortality,"[1]; 0.0156 mg/l of soil, adjuvant (I-5) 2000 mg/l, infection 13 d after application, 7 d after infection",D (from 76 to 100)
same,Mortality,"[1]; 0.0156 mg/l of soil, no adjuvant, infection 13 d after application, 5 d after infection",C (from 51 to 75%)
same,Mortality,"[1]; 0.0156 mg/l of soil, no adjuvant, infection 13 d after application, 7 d after infection",C (from 51 to 75%)
same,Mortality,"[1]; 0.0313 mg/l of soil, adjuvant (I-3) 2000 mg/l, infection 7 d after application, 4 d after infection",D (from 76 to 100)
same,Mortality,"[1]; 0.0313 mg/l of soil, adjuvant (I-3) 2000 mg/l, infection 7 d after application, 6 d after infection",D (from 76 to 100)
same,Mortality,"[1]; 0.0313 mg/l of soil, adjuvant (I-5) 2000 mg/l, infection 7 d after application, 4 d after infection",D (from 76 to 100)
same,Mortality,"[1]; 0.0313 mg/l of soil, adjuvant (I-5) 2000 mg/l, infection 7 d after application, 6 d after infection",D (from 76 to 100)
same,Mortality,"[1]; 0.0313 mg/l of soil, no adjuvant, infection 7 d after application, 4 d after infection",C (from 51 to 75%)
same,Mortality,"[1]; 0.0313 mg/l of soil, no adjuvant, infection 7 d after application, 6 d after infection",C (from 51 to 75%)
CCOC(=O)OC1=C(c2cc(C)ccc2C)C(=O)NC12CCC(OC)CC2 (centres unmarked) [(V-3)],Mortality,"[1]; 2 mg/l of soil, adjuvant (I-5) 1000 mg/l, infection 3 d after application, 7 d after infection",C (from 51 to 75%)
same,Mortality,"[1]; 2 mg/l of soil, adjuvant (I-5) 1000 mg/l, infection 5 d after application, 7 d after infection",C (from 51 to 75%)
same,Mortality,"[1]; 2 mg/l of soil, no adjuvant, infection 3 d after application, 7 d after infection",B (from 26 to 50%)
same,Mortality,"[1]; 2 mg/l of soil, no adjuvant, infection 5 d after application, 7 d after infection",B (from 26 to 50%)
"N#Cc1nn(-c2c(Cl)cc(C(F)(F)F)cc2Cl)c(N)c1[S+]([O-])C(F)(F)F (centres unmarked) [(VI-1), fipronil]",Mortality,"[3]; 1 mg/l of soil, adjuvant (I-3) 1000 mg/l",B (from 26 to 50%)
same,Mortality,"[3]; 1 mg/l of soil, adjuvant (I-5) 1000 mg/l",C (from 51 to 75%)
same,Mortality,"[3]; 1 mg/l of soil, no adjuvant",A (from 0 to 25%)
same,Mortality,"[3]; 5 mg/l of soil, adjuvant (I-3) 1000 mg/l",D (from 76 to 100)
same,Mortality,"[3]; 5 mg/l of soil, no adjuvant",C (from 51 to 75%)
